One assay deals with T1, α2-adrenoceptor (Rattus norvegicus, UniProt P22909).
T1 construct: from tissue; host or cells: desheathed vas deferens of sexually mature rats
T1 sequence (P22909 1-465): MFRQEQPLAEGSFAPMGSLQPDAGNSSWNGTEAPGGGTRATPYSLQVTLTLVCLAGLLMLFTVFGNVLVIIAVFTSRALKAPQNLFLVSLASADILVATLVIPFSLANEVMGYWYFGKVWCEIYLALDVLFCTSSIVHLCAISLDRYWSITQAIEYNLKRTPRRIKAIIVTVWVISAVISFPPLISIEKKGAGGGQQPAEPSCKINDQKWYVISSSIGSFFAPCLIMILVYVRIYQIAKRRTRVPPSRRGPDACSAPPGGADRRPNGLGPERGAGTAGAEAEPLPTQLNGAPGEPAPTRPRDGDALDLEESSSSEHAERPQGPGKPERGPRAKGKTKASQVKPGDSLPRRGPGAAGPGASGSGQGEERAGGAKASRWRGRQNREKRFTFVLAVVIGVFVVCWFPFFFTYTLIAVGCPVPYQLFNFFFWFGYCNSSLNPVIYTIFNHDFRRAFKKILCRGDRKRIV
Description: α2-adrenoceptor antagonistic activity on the rat field stimulated vas deferens preparation (against clonidine). The following applies: for α2/α1 selectivity: antilog of (α2 pA2 - α1 pA2); for Kb: rat field stimulated vas deferens, clonidine as agonist, 37°, 90 min after introduction of antagonist, Arunlakshana & Schild, read-out: pA2 (α2) (converted). The protocol:
The compounds of the invention were tested for their α2 -adrenoceptor antagonistic activity on the rat field stimulated vas deferens preparation using a modification of the method of Drew, Eur.J.Pharmac., 1977, 42, 123-130. The procedure is described below.
Desheathed vas deferentia from sexually mature rats were suspended in a 6 ml organ bath in Krebs solution at 37° and bubbled with 5% CO2 in oxygen. Platinum ring electrodes were positioned above and below the tissue for field stimulation, the stimulus parameters being 0.1 Hz 1 ms pulse width at supramaximal voltage. Twitch responses were recorded isotonically with a 0.5 g loading. Clonidine hydrochloride was used as the α-adrenoceptor agonist and cumulative concentration-response curves were constructed for the inhibition of twitch obtained with clonidine in the range 0.125 to 4 ng ml^-1. After washing out clonidine, the twitch response quickly recovered and an antagonist was then introduced into the Krebs reservoir. Clonidine concentration-response curves were repeated 90 min after introduction of the antagonist. The concentration of clonidine producing 50% inhibition of twitch before and after introduction of antagonist were obtained and the dose-ratio for clonidine was calculated. Various concentrations of the antagonists were used.
Chemother., 1959, 14, 48-58 and the values of pA2 and slope were calculated.

For a further assay, the target named is T2, α1-adrenoceptor (Rattus norvegicus, UniProt P43140).
T2 construct: isolated anococcygeus muscle of the rat; from tissue; host or cells: anococcygeus muscle of male rats (250-360 g)
T2 sequence (P43140 1-466): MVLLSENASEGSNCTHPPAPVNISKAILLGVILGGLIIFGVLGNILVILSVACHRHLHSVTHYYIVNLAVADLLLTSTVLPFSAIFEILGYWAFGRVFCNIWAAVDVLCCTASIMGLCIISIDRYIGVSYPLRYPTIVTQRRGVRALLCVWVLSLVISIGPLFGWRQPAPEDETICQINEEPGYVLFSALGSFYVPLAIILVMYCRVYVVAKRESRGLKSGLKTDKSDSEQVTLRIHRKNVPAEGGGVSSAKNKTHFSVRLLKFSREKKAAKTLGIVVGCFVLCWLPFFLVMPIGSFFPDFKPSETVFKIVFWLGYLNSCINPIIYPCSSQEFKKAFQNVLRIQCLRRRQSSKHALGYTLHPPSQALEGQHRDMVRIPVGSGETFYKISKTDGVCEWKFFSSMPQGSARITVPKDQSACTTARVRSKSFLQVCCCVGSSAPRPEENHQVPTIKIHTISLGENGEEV
Description: α1 antagonistic activity on the isolated anococcygeus muscle of the rat (against phenylephrine or methoxamine). As to conditions: antagonist of phenylephrine or methoxamine, 37°, 10^-6 to 10^-4 M test drug, 30 min equilibration, read-out: pA2 (α1) (converted). An excerpt: The α1 antagonistic activity can be evaluated by a number of different methods. One method involves assessing the activity on the isolated anococcygeus muscle of the rat. The method is based on that of Gillespie, Br.J.Pharmac., 1972, 45, 404-416. In the procedure male rats (250-360 g) are killed by a blow on the head and bled. The two anococcygeus muscles are removed from their position in the midline of the pelvic cavity, where they arise from the upper coccygeal vertebrae. The muscles are suspended in 5 ml organ baths in Krebs solution containing 10^-4 M ascorbic acid, to prevent drug oxidation. The tissues are gassed with a 95% oxygen, 5% CO2 mixture and maintained at 37°. Longitudinal muscle contractions are recorded using isotonic transducers. Cumulative dose response curves are then obtained to phenylephrine or in some cases methoxamine, both agents being […] alpha adrenoceptor agonists. The concentration range of phenylephrine or methoxamine used is 0.02 to 0.8 μg.ml^-1. The agonist is then washed from the bath and the test drug added to the bathing medium at a concentration of 10^-6 M. After 30 min. equilibration with the test drug a further agonist dose response curve is obtained. The washing, equilibration and agonists dosing procedures are then repeated using 10^-5 M and 10^-4 M solutions of the test drug. Estimates of the pA2 value for the test drug as an antagonist of phenylephrine or methoxamine were made from the agonist dose-ratios using the method of Arunlakshana & Schild, Br.J.Pharmac.Chemother., 1959, 14, 48-58.

As to `CN([C@H]1CCN2CCc3ccccc3[C@H]2C1)S(=O)(=O)C(F)(F)F` (relative stereo) [Example 1, N-Methyl-N-(1,3,4,6,7,11bα-hexahydro-2H-benzo[a]quinolizin-2β-yl)-trifluoromethanesulphonamide], on α2-adrenoceptor, the α2/α1 selectivity came out at 46 and the Kb is 70.8 nM. Further, the Kb on α1-adrenoceptor is 3240 nM.

For the molecule `CN([C@H]1CCN2CCc3ccccc3[C@H]2C1)S(=O)(=O)CC(F)(F)F` (relative stereo) [Example 2, N-Methyl-N-(1,3,4,6,7,11bα-hexahydro-2H-benzo[a]quinolizin-2β-yl)-2',2',2'-trifluoroethanesulphonamide], at α2-adrenoceptor, the α2/α1 selectivity was determined as 43 and the Kb was 27.5 nM. At α1-adrenoceptor, the Kb was 1170 nM.

In the case of `CN([C@H]1CCN2CCc3ccccc3[C@H]2C1)S(=O)(=O)CCl` (relative stereo) [Example 3, N-Methyl-N-(1,3,4,6,7,11bα-hexahydro-2H-benzo[a]quinolizin-2β-yl)chloromethanesulphonamide], at α2-adrenoceptor, the α2/α1 selectivity turned out to be 45 and the Kb is 8.91 nM. Besides, at α1-adrenoceptor, the Kb is 245 nM.

The molecule `CN([C@H]1CCN2CCc3ccccc3[C@H]2C1)S(=O)(=O)CCCCl` (relative stereo) [Example 4, N-Methyl-N-(1,3,4,6,8,11bα-hexahydro-2H-benzo[a]quinolizin-2β-yl)-3'-chloropropanesulphonamide] came in with a α2/α1 selectivity at α2-adrenoceptor of 27.5. Also, the results for the Kb at α2-adrenoceptor and at α1-adrenoceptor were 8.32 nM and 288 nM, respectively.
